Laboratory results: patent US12036222B2, “Methods of treating cancers overexpressing CARM1 with EZH2 inhibitors and a PARP inhibitor” (The Wistar Institut of Anatomy and Biology, priority 2018, dated 2024)
Entries after “also recorded” stand apart in the source; their conditions may differ.

Tested on: A1847 parental and CARM1 knockout cells
Assay: Epigenetic targeting small molecule set screen (14-day colony formation)
Assay type: cell-based, human
Conditions: 14 days, normalized to vehicle
Description: FIG. 26 illustrates that CARM1-expressing cells are selectively sensitized to EZH2 inhibitors. Equal number of parental control or CARM1 knockout […] cells were plated and treated with each of the 23 individual epigenetic inhibitors for 14 days. The media with the inhibitors was refreshed every 3 days. Cell growth was quantified as integrated density using NIH Image J software. Quantification of the average integrated density graphed as a scatter plot. The X-axis indicates the relative growth of treated CARM1 high parental […] cells compared with DMSO vehicle controls. Y-axis indicates the relative growth of treated CARM1 knockout […] cells compared with DMSO vehicle controls. n=4; and error bars represents SEM. FIG. 27 illustrates a table of EZH2 inhibitors that are selective against CARM1 expression. CARM1-high parental controls and CARM1 knockout […] cells were treated with the indicated concentration of the small molecules in a 14-day colony formation assay. Integrated density for each well was calculated using NIH Image J software. The relative growth of the indicated cells was determined by normalizing to the vehicle control treated cells. n=4 and p-value was calculated using a two-tailed t-test. […] parental and CARM1 knockout cells were plated in 24-well plates and treated with 24 epigenetic compounds. Cell medium was changed every three days with appropriate drug doses for 14 days or until control wells became confluent. Colonies were washed twice with PBS and fixed with 10% methanol and 10% acetic acid in distilled water. Fixed colonies were stained with 0.005% crystal violet. Integrated density was measured using NIH ImageJ software as a surrogate for cell growth.

Structure (SMILES) | selective growth suppression of CARM1-expressing vs CARM1 KO cells
CC(=O)Nc1ccc(C(=O)Nc2ccccc2N)cc1 [CI994] | equally effective in suppressing the growth of both CARM-expressing and KO cells; also recorded: showed no difference between parental and CARM1 knockout cells
CCCc1cc(C)[nH]c(=O)c1CNC(=O)c1cc(-c2ccc(N3CCN(C(C)C)CC3)nc2)cc2c1cnn2C(C)C [UNC1999, 1-isopropyl-6-(6-(4-isopropylpiperazin-1-yl)pyridin-3-yl)-N-((6-methyl-2-oxo-4-propyl-1,2-dihydropyridin-3-yl)methyl)-1H-indazole-4-carboxamide] | showed selectivity against CARM1-expressing cells; also recorded: selectively sensitive
